Assay results from US10723741B1, “DNA polymerase IIIC inhibitors and use thereof” (Acurx Pharmaceuticals, LLC, priority 2018, dated 2020).
≈ marks a conversion by molar mass, not a printed value. Like-named read-outs stand apart in the source and are kept apart here.

What was measured:
Format in all cases: cell-based
[1] = system: Staphylococcus aureus NRS384 (MRSA); test: Broth microdilution MIC, S. aureus NRS384 (MRSA); parameters: MIC NRS 384 (MRSA): unit not given here; details: for MIC: Staphylococcus aureus, read-out: MIC NRS 384 (MRSA)
Procedure, shortened: (§1)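 Two-fold dilutions from 64 to 0.0625 μg/ml final, 1% DMSO, were inoculated at ~5.0×10^5 cfu/ml in the strain's test medium and kept 20 h at 37 °C in ambient atmosphere. Colonies were grown on MHA, with S. pneumoniae on blood agar under 5% CO2.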

[2] = system: Staphylococcus aureus ATCC 29213 (MSSA); test: Broth microdilution MIC, S. aureus ATCC 29213 (MSSA); details: read-out: MIC S. aureus ATCC 29213 (MSSA)
Procedure, shortened: as §1

[3] = system: Enterococcus faecalis ATCC 29212; test: Broth microdilution MIC, E. faecalis ATCC 29212; details: read-out: MIC E. faecalis ATCC 29212
Procedure, shortened: as §1

[4] = system: Enterococcus faecium ATCC 700221 (VRE); test: Broth microdilution MIC, E. faecium ATCC 700221 (VRE); parameters: MIC E. faecium ATCC 700221 (VRE): unit: ug/mL; details: for MIC: Enterococcus faecium, read-out: MIC E. faecium ATCC 700221 (VRE)
Procedure, shortened: as §1

[5] = system: Streptococcus pneumoniae ATCC 49619; test: Broth microdilution MIC, S. pneumoniae ATCC 49619; details: read-out: MIC S. pneumoniae ATCC 49619
Procedure, shortened: as §1

[6] = system: Bacillus subtilis ATCC 6633; test: Broth microdilution MIC, B. subtilis ATCC 6633; details: read-out: MIC B. subtilis ATCC 6633
Procedure, shortened: as §1

[7] = system: Escherichia coli ATCC 25922; test: Broth microdilution MIC, E. coli ATCC 25922 (MHIIB w & w/o 4 mM EDTA); details: for MIC: Escherichia coli, read-out: MIC E. coli ATCC 25922; for MIC E. coli ATCC 25922 + 4 mM EDTA: with 4 mM EDTA
Procedure, shortened: as §1

[8] = broth microdilution, 37° C., 20 hours
[9] = ATCC29212, broth microdilution, 37° C., 20 hours
[10] = ATCC49619, broth microdilution, 37° C., 20 hours
[11] = ATCC6633, broth microdilution, 37° C., 20 hours
[12] = ATCC25922, without EDTA, broth microdilution, 37° C., 20 hours

| SMILES | MIC [1, 8] [µg/mL] | MIC [2, 8] [µg/mL] | MIC [3, 9] [µg/mL] | MIC [4, 8] [µg/mL] | MIC [5, 10] [µg/mL] | MIC [6, 11] [µg/mL] | MIC [7, 12] [µg/mL] | MIC E. coli ATCC 25922 + 4 mM EDTA [7, 8] [µg/mL] | MIC NRS 384 (MRSA) [1, 8] | MIC E. faecium ATCC 700221 (VRE) [4, 8] | MIC ([1]; 20 h) [µg/mL] | MIC ([2]; 20 h) [µg/mL] | MIC ([3]; ATCC29212, 20 h) [µg/mL] | MIC ([4]; 20 h) [µg/mL] | MIC ([5]; ATCC49619, 20 h) [µg/mL] | MIC ([6]; ATCC6633, 20 h) [µg/mL] | MIC ([7]; ATCC25922, 20 h) [µg/mL] |
| --- | --- | --- | --- | --- | --- | --- | --- | --- | --- | --- | --- | --- | --- | --- | --- | --- | --- |
| O=C1CCC(Cn2ncc3nc(NCc4ccc(Cl)c(Cl)c4)[nH]c(=O)c32)N1 (stereo not shown) [Compound 93, 5-((3,4-Dichlorobenzyl)amino)-1-((5-oxopyrrolidin-2-yl)methyl)-1H-pyrazolo[4,3-d]pyrimidin-7(6H)-one] | 16 (≈ 39.3 µM) | 8 (≈ 19.6 µM) | 8 (≈ 19.6 µM) | 4 (≈ 9.82 µM) | 2 (≈ 4.91 µM) | 4 (≈ 9.82 µM) | > 64 | 64 |  |  |  |  |  |  |  |  |  |
| O=C1CCCN1CCn1ncc2nc(NCc3ccc(Cl)c(Cl)c3)[nH]c(=O)c21 [Compound 94, 5-((3,4-Dichlorobenzyl)amino)-1-(2-(2-oxopyrrolidin-1-yl)ethyl)-1H-pyrazolo[4,3-d]pyrimidin-7(6H)-one] | 16 (≈ 38 µM) | 16 (≈ 38 µM) | 16 (≈ 38 µM) | 4 (≈ 9.49 µM) | 4 (≈ 9.49 µM) | 8 (≈ 19 µM) | > 64 | >64 |  |  |  |  |  |  |  |  |  |
| CCCCOCCOCCOCCn1ncc2nc(NCc3ccc(Cl)c(Cl)c3)[nH]c(=O)c21 [Compound 95, 1-(2-(2-(2-Butoxyethoxy)ethoxy)ethyl)-5-((3,4-dichlorobenzyl)amino)-1H-pyrazolo[4,3-d]pyrimidin-7(6H)-one] | 4 (≈ 8.03 µM) | 4 (≈ 8.03 µM) | 16 (≈ 32.1 µM) | 4 (≈ 8.03 µM) | 8 (≈ 16.1 µM) | 2 (≈ 4.01 µM) | > 64 | >64 |  |  |  |  |  |  |  |  |  |
| O=c1[nH]c(NCc2ccc(Cl)c(Cl)c2)nc2cnn(C[C@H]3NC[C@H](O)[C@@H](O)[C@@H]3O)c12 [Compound 96, 5-((3,4-Dichlorobenzyl)amino)-1-(((2R,3R,4R,5 S)-3,4,5-trihydroxypiperidin-2-yl)methyl)-1H-pyrazolo[4,3-d]pyrimidin-7(6H)-one] | > 64 | > 64 | > 64 | 64 (≈ 141 µM) | 64 (≈ 141 µM) | > 64 | > 64 | 32 |  |  |  |  |  |  |  |  |  |
| Cn1ccnc1Cn1ncc2nc(NCc3ccc(Cl)c(Cl)c3)[nH]c(=O)c21 [Compound 97, 5-((3,4-Dichlorobenzyl)amino)-1-((1-methyl-1H-imidazol-2-yl)methyl)-1H-pyrazolo[4,3-d]pyrimidin-7(6H)-one] | 8 (≈ 19.8 µM) | 8 (≈ 19.8 µM) | > 64 | 8 (≈ 19.8 µM) | 4 (≈ 9.89 µM) | 8 (≈ 19.8 µM) | > 64 | >64 |  |  |  |  |  |  |  |  |  |
| CC(C)(C)OC(=O)N1CCC(n2ncc3nc(NCc4ccc(Cl)c(Cl)c4)[nH]c(=O)c32)C1 (stereo not shown) [Compound 98, tert-Butyl 3-(5-((3,4-dichlorobenzyl)amino)-7-oxo-6,7-dihydro-1H-pyrazolo[4,3-d]pyrimidin-1-yl)pyrrolidine-1-carboxylate] | 8 (≈ 16.7 µM) | 8 (≈ 16.7 µM) | > 64 | 4 (≈ 8.34 µM) | 16 (≈ 33.4 µM) | 2 (≈ 4.17 µM) | > 64 | >64 |  |  |  |  |  |  |  |  |  |
| Cl.NCCOCCn1ncc2nc(NCc3ccc(Cl)c(Cl)c3)[nH]c(=O)c21 [Compound 99, 1-(2-(2-aminoethoxy)ethyl)-5-((3,4-dichlorobenzyl)amino)-1H-pyrazolo[4,3-d]pyrimidin-7(6H)-one hydrochloride] | 64 | 64 | 32 | 32 | 4 | 2 | > 64 | 64 |  |  |  |  |  |  |  |  |  |
| CC(C)(C)OC(=O)NCCOCCn1ncc2nc(NCc3ccc(Cl)c(Cl)c3)[nH]c(=O)c21 [Compound 100, tert-Butyl (2-(2-(5-((3,4-dichlorobenzyl)amino)-7-oxo-6,7-dihydro-1H-pyrazolo[4,3-d]pyrimidin-1-yl)ethoxy)ethyl)carbamate] |  |  |  |  |  |  |  | >64 |  |  | > 64 | > 64 | > 64 | 4 (≈ 8.04 µM) | 8 (≈ 16.1 µM) | 2 (≈ 4.02 µM) | > 64 |
| Cl.O=c1[nH]c(NCc2ccc(Cl)c(Cl)c2)nc2cnn(Cn3cncn3)c12 [Compound 101, 1-((1H-1,2,4-triazol-1-yl)methyl)-5-((3,4-dichlorobenzyl)amino)-1H-pyrazolo[4,3-d]pyrimidin-7(6H)-one hydrochloride] |  | 4 | 4 |  | 4 | 2 | > 64 | 64 | 8/8 | 2/4 |  |  |  |  |  |  |  |
| O=c1[nH]c(NCc2ccc(Cl)c(Cl)c2)nc2cnn(CC3CCCO3)c12 (stereo not shown) [Compound 102, 5-((3,4-Dichlorobenzyl)amino)-1-((tetrahydrofuran-2-yl)methyl)-1H-pyrazolo[4,3-d]pyrimidin-7(6H)-one] |  | 4 (≈ 10.1 µM) | 4 (≈ 10.1 µM) |  | 4 (≈ 10.1 µM) | 1 (≈ 2.54 µM) | > 64 | >64 | 4/4 | 2/4 |  |  |  |  |  |  |  |
| Cl.O=c1[nH]c(NCc2ccc(Cl)c(Cl)c2)nc2cn(Cn3cncn3)nc12 [Compound 103, 2-((1H-1,2,4-triazol-1-yl)methyl)-5-((3,4-dichlorobenzyl)amino)-2H-pyrazolo[4,3-d]pyrimidin-7(6H)-one hydrochloride] | 64 | 64 | > 64 | 64 | 16 | 32 | > 64 | 64 |  |  |  |  |  |  |  |  |  |

More lines, main results first:

| MIC [1, 8] [µg/mL] | MIC [2, 8] [µg/mL] | MIC [3, 9] [µg/mL] | MIC [4, 8] [µg/mL] | MIC [5, 10] [µg/mL] | MIC [6, 11] [µg/mL] | MIC [7, 12] [µg/mL] | MIC E. coli ATCC 25922 + 4 mM EDTA [7, 8] [µg/mL] | MIC NRS 384 (MRSA) [1, 8] | MIC E. faecium ATCC 700221 (VRE) [4, 8] | SMILES | MIC ([1]; 20 h) [µg/mL] | MIC ([2]; 20 h) [µg/mL] | MIC ([3]; ATCC29212, 20 h) [µg/mL] | MIC ([4]; 20 h) [µg/mL] | MIC ([5]; ATCC49619, 20 h) [µg/mL] | MIC ([6]; ATCC6633, 20 h) [µg/mL] | MIC ([7]; ATCC25922, 20 h) [µg/mL] |
| --- | --- | --- | --- | --- | --- | --- | --- | --- | --- | --- | --- | --- | --- | --- | --- | --- | --- |
|  | 4 (≈ 9.65 µM) | 4 (≈ 9.65 µM) |  | 4 (≈ 9.65 µM) | 1 (≈ 2.41 µM) | > 64 | >64 | 4/4 | 2/2 | O=c1[nH]c(NCc2ccc(Cl)c(Cl)c2)nc2cnn(CCSCCO)c12 [Compound 104, 5-((3,4-Dichlorobenzyl)amino)-1-(2-((2-hydroxyethyl)thio)ethyl)-1H-pyrazolo[4,3-d]pyrimidin-7(6H)-one] |  |  |  |  |  |  |  |
|  | 4 (≈ 9.75 µM) | 8 (≈ 19.5 µM) |  | 4 (≈ 9.75 µM) | 1 (≈ 2.44 µM) | > 64 | >64 | 4/2 | 4/2 | O=c1[nH]c(NCc2ccc(Cl)c(Cl)c2)nc2cnn(CC3COCCO3)c12 (stereo not shown) [Compound 105, 1-((1,4-Dioxan-2-yl)methyl)-5-((3,4-dichlorobenzyl)amino)-1H-pyrazolo[4,3-d]pyrimidin-7(6H)-one] |  |  |  |  |  |  |  |
| 32 (≈ 77.6 µM) | 64 (≈ 155 µM) | > 64 | 32 (≈ 77.6 µM) | 32 (≈ 77.6 µM) | 32 (≈ 77.6 µM) | > 64 | >64 |  |  | COCC(COC)n1ncc2nc(NCc3ccc(Cl)c(Cl)c3)[nH]c(=O)c21 [Compound 106, 5-((3,4-Dichlorobenzyl)amino)-1-(1,3-dimethoxypropan-2-yl)-1H-pyrazolo[4,3-d]pyrimidin-7(6H)-one] |  |  |  |  |  |  |  |
| > 64 | > 64 | > 64 | > 64 | 16 (≈ 41.6 µM) | 32 (≈ 83.3 µM) | > 64 | >64 |  |  | O=c1[nH]c(NCc2ccc(Cl)c(Cl)c2)nc2cnn(C(CO)CO)c12 [Compound 107, 5-((3,4-Dichlorobenzyl)amino)-1-(1,3-dihydroxypropan-2-yl)-1H-pyrazolo[4,3-d]pyrimidin-7(6H)-one] |  |  |  |  |  |  |  |
|  | 4 (≈ 9.13 µM) | 8 (≈ 18.3 µM) |  | 4 (≈ 9.13 µM) | 2 (≈ 4.56 µM) | > 64 | >64 | 8/4 | 4/2 | O=c1[nH]c(NCc2ccc(Cl)c(Cl)c2)nc2cnn(CCOC3CCOCC3)c12 [Compound 108, 5-((3,4-Dichlorobenzyl)amino)-1-(2-((tetrahydro-2H-pyran-4-yl)oxy)ethyl)-1H-pyrazolo[4,3-d]pyrimidin-7(6H)-one] |  |  |  |  |  |  |  |
| 64 | > 64 | > 64 | 4 | 4 | 2 | > 64 | >64 |  |  | Cl.O=c1[nH]c(NCc2ccc(Cl)c(Cl)c2)nc2cnn(Cc3ccccn3)c12 [Compound 109, 5-((3,4-Dichlorobenzyl)amino)-1-(pyridin-2-ylmethyl)-1H-pyrazolo[4,3-d]pyrimidin-7(6H)-one hydrochloride] |  |  |  |  |  |  |  |
